Data as given in ChEMBL document CHEMBL1143538 (Bioorg Med Chem Lett, 2005).

Key:
Assay type in all cases: cell-based
Mu-type opioid receptor = Mu-type opioid receptor (Homo sapiens, UniProt P35372); assay: Binding affinity against Opioid receptor mu 1 expressed in CHO cells using [3H]DAMGO as radioligand
[1] = molecular target: Kappa-type opioid receptor (Homo sapiens, UniProt P41145); assay: Binding affinity against Opioid receptor kappa 1 expressed in CHO cells using [3H]U-69593 as radioligand
Chain of Kappa-type opioid receptor (P41145 whole entry): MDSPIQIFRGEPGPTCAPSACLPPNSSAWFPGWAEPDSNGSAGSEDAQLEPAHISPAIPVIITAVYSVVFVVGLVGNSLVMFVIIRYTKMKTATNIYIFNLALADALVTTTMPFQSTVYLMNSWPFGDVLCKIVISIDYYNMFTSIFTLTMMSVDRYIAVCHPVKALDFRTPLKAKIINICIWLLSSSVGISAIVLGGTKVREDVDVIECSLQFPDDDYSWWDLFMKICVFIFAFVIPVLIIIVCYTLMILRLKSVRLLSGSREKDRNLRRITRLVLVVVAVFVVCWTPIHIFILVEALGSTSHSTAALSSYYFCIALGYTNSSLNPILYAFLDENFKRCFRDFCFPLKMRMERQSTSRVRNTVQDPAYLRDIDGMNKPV

[2] = molecular target: Delta-type opioid receptor (Homo sapiens, UniProt P41143); assay: Binding affinity against Opioid receptor delta 1 expressed in CHO cells using [3H]Naltrindole as radioligand
Chain of Delta-type opioid receptor (P41143 whole entry): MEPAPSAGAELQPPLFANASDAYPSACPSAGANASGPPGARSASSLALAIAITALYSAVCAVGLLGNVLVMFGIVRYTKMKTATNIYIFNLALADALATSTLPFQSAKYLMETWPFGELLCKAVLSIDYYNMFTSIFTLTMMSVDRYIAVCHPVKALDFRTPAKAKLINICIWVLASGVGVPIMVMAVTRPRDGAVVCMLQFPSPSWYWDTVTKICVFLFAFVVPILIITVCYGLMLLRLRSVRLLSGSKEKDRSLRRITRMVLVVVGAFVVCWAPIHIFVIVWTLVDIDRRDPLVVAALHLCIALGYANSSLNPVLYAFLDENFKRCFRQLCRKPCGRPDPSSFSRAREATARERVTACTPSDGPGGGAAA

Chain of Mu-type opioid receptor (P35372 whole entry): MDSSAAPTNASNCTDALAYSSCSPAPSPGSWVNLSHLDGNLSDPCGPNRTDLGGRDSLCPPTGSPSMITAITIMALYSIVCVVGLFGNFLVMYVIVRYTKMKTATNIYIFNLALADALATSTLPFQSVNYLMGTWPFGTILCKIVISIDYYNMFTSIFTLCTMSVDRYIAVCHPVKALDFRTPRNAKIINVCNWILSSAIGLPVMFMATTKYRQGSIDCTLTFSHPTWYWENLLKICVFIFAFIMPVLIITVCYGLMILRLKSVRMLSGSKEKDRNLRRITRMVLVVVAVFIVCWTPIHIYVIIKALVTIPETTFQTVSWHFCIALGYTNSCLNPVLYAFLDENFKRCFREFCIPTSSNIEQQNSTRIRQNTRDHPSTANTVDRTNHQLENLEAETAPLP

Row | Compound | Ki (Mu-type opioid receptor) [nM] | Ki [1] [nM] | Ki [2] [nM]
1 | COc1c(C(N)=O)ccc2c1[C@]13CCN(CC4CC4)[C@H](C2)[C@]1(O)CCC(=O)C3 | 11 | 23 | 480
2 | O=C1CC[C@@]2(O)[C@H]3Cc4ccc(O)c(O)c4[C@@]2(CCN3CC2CC2)C1 | 17 | 2.2 | 130
3 | NC(=O)c1ccc2c(c1O)[C@]13CCN(CC4CCC4)[C@H](C2)[C@]1(O)CCC(=O)C3 | – | 0.27 | 4.2
4 | NC(=O)c1ccc2c3c1O[C@H]1C(=O)CC[C@@]4(O)[C@@H](C2)N(CC2CC2)CC[C@]314 | 0.71 | 11 | 550
5 | NC(=O)c1ccc2c(c1O)[C@]13CCN(CC4CC4)[C@H](C2)[C@]1(O)CCC(=O)C3 [SAMIDORPHAN] | 0.052 | 0.23 | 2.6
